# Reference: article PMC5828182, “Inhibition of nuclear factor of activated T cells (NFAT) c3 activation attenuates acute lung injury and pulmonary edema in murine models of sepsis” (Oncotarget, 2018)
# Experiments:
# [1] = system: NFAT dependent gene expression; settings: liver allograft patients, after 8–12 months; cited from earlier work
# [2] = system: NFATc3−/− and wild type mice, severe CLP sepsis; assay: survival after severe (lethal) CLP; format: in vivo, mouse
# Description: Figure 5 NFATc3^−/− mice show improved arterial Oxygen saturation and survival compared to wild type mice (A) NFATc3^−/− and wild type mice (N = 5) were injected with 15 mg/kg LPS i.p and the arterial oxygen saturation was measured using STARR Life Sciences Corp. Pulse Oximeter. (B–C) NFATc3^−/− and wild type mice (N = 5 sham control group; N = 10 CLP group) were subjected to severe CLP, maintained on regular or imipenem monohydrate supplemented water and the survival was monitored over a period of 96 h. A^* p ≤ 0.001 WT-LPS vs. WT-Control; ^** p ≤ 0.01 NFATc3^−/− LPS vs. WT-LPS.
# Cecal ligation puncture (CLP) sepsis models were established according to Cuenca et al.. In an anesthetized mouse, the cecum is exposed and ligated below ileo-cecal valve and two perforations were made across the cecum using 21G needle. The cecum is then compressed to express minute amount of fecal material. To establish moderate CLP sepsis the cecum was ligated at less than 1.0 cm from the distal end and for severe sepsis about 2.0 cm of the cecum from distal end was ligated. Pulmonary edema, arterial oxygenation, and inflammation were evaluated in moderate CLP sepsis models. […] LPS (15 mg/kg) or the same volume of normal saline was administered into intraperitoneal cavity of WT or NFATc3^−/− mice and arterial oxygenation was measured by pulse oximetry. […]
# NFAT = settings: cited from earlier work
# Description: (§1) Research efforts to identify NFAT inhibitors span over the last two decades but so far none of them performed well in the clinical trials.
# calcineurin = settings: derivative of cyclosporine; cited from earlier work
# Description: as §1
# plaque psoriasis = settings: cited from earlier work
# Description: as §1
# [3] = system: experimental colitis model in mice; settings: cited from earlier work
# diabetic db/db mice = settings: cited from earlier work
# [4] = system: islet allografts between BL/6 and C3H/HeN mouse strains; settings: BL/6 and C3H/HeN mice; cited from earlier work
# [5] = system: mouse models of Alzheimer's disease; settings: mice; cited from earlier work
compound,measurement,setting,value
C=CC[C@@H]1/C=C(\C)C[C@H](C)C[C@H](OC)[C@H]2O[C@@](O)(C(=O)C(=O)N3CCCC[C@H]3C(=O)O[C@H](/C(C)=C/[C@@H]3CC[C@@H](O)[C@H](OC)C3)[C@H](C)[C@@H](O)CC1=O)[C@H](C)C[C@@H]2OC [Tacrolimus],NFAT dependent gene expression,[1],increased NFAT dependent gene expression
"C[C@@H](O)[C@H]1C(=O)N2C(C(=O)O)=C(SCCN=CN)C[C@H]12 [imipenem, imipenem monohydrate]",survival,"[2]; NFATc3−/− mice, imipenem in drinking water, monitored over 96 h, N = 10 CLP group",60%
same,lethality / survival of WT mice,"[2]; WT mice, imipenem (broad-spectrum antibiotic) in drinking water, 96 h",not improved any further
O=c1c(O)c(-c2ccc(O)cc2)oc2cc(O)cc(O)c12 [kaempferol],NFAT inhibition,NFAT,variable degree of NFAT inhibition
COc1cc(C[C@H]2C(=O)OC[C@@H]2Cc2ccc(OC)c(OC)c2)ccc1O [Arctigenin],NFAT inhibition,NFAT,variable degree of NFAT inhibition
C=C/C=C/C[C@@H](C)[C@@H](O)[C@H]1C(=O)N[C@@H](CC)C(=O)N(C)CC(=O)N(C)[C@@H](CC(C)C)C(=O)N[C@@H](C(C)C)C(=O)N(C)[C@@H](CC(C)C)C(=O)N[C@@H](C)C(=O)N[C@H](C)C(=O)N(C)[C@@H](CC(C)C)C(=O)N(C)[C@@H](CC(C)C)C(=O)N(C)[C@@H](C(C)C)C(=O)N1C [ISA247],calcineurin inhibition,calcineurin,more potent and effectively inhibited Calcineurin
same,phase III outcome,plaque psoriasis,did not result in to any commercial products so far
11R-VIVIT,effect in experimental colitis,[3],protective effect
same,albuminuria,diabetic db/db mice,markedly attenuates
same,mesangial matrix expansion and podocyte injury,diabetic db/db mice,alleviated
same,immunosuppression in islet allografts,[4],improved immunosuppression
same,microgliosis and Amyloid β peptide (Aβ) plaque load,[5],attenuated
Cc1cc2c(C(C)C)c(O)c(O)c(C=O)c2c(O)c1-c1c(C)cc2c(C(C)C)c(O)c(O)c(C=O)c2c1O [gossypol],NFAT inhibition,NFAT,variable degree of NFAT inhibition
